Here are results for 3 molecules from patent US20060178352A1, “Use of androgens to reduce the likelihood of acquiring or to treat skin aging” (Endorecherche, Inc., priority 2004, published 2006).

One test deals with androgen receptor (AR). Briefly: Immunohistochemistry of androgen receptor in epidermis of mouse dorsal skin. It counts as in vivo. The note with it: GDX males and females, 3 weeks treatment. The method, then: (§1) Fifty six adult male and female C57BL6 mice 13-15 weeks of age were obtained from Harlan Laboratory (Indiana, USA). […] Animals of intact and GDX control groups were treated with the vehicle alone during the same period. Six hours after the last treatment, all animals were sacrificed.

A further test concerns mouse dorsal skin. In kind it is in vivo. The note with it: for Effect on hypodermal thickness: GDX animals of both sexes, p<0.01; for Dermis % (proportion of skin layer) / Epidermis % (proportion of skin layer) / Hypodermis % (proportion of skin layer) / Dermis T (thickness) / Epidermis T (thickness) / Hypodermis T (thickness): 3 weeks treatment; for Dermis T (thickness) / Epidermis T (thickness) / Hypodermis T (thickness): mean ± SEM. The method, then: as §1
Since DHT is known to be poorly active by the oral route, it was injected subcutaneously. To determine the DHT dose, a preliminary dose-range study was performed (see supplementary online material, online Table S1).
After shaving the long hair, the dorsal skin was excised, flattened and immediately immersed in 10% buffered formalin. A sample was embedded in paraffin blocks from which 4 μm sections were cut and routinely stained.
Under the light microscope, measurements were performed using the IMAGE-PRO PLUS (Media Cybernetics, USA). Twenty-five readings were scored from each skin layer of each animal. The epidermal thickness was measured from stratum basale to stratum granulosum (excluding stratum corneum), whereas the dermal thickness was the distance between the epidermis and the hypodermis. Finally, the hypodermal thickness was measured as the distance between the dermis and the panniculus carnosus.

The conditions of test [1]: aged individuals, particularly women >70 years; cited from earlier work.
The conditions of test [2]: men and women 60-79 years, oral 50 mg once daily, cited from earlier work.
[3] abbreviates: GDX females, versus GDX control.

Each structure is given as a SMILES string. Where two headings read alike, the source gives them in different places.

For the molecule `C[C@]12CC[C@@H]3c4ccc(O)cc4CC[C@H]3[C@@H]1CC[C@@H]2O` [E2], the “AR labeling / expression in epidermal nuclei” value in the test on androgen receptor (AR) is recorded as “weak AR labeling”. Also, in the test on mouse dorsal skin, the “Effect on hypodermal thickness” value was “markedly decreased”.
Regarding `C[C@]12CC[C@H](O)CC1=CC[C@@H]1[C@@H]2CC[C@]2(C)C(=O)CC[C@@H]12` [DHEA, dehydroepiandrosterone], the Sebum production result in test [1] is “increase”. Further, in test [2] (1 year), the “Facial skin pigmentation (yellowness)” value is recorded as “significantly decreased”; the “Other components of skin colour (lightness and redness)” value is “remained stable”. For the same molecule, the Skin surface hydratation result in test [2] (after 12 months) is on record as “significantly increased”. Further, the “Effect on hypodermal thickness” value with mouse dorsal skin is “markedly decreased”. Further, in the test with mouse dorsal skin (GDX female mice), the “Dermis % (proportion of skin layer)” value came to 75.8%, the “Epidermis % (proportion of skin layer)” value amounted to 3.2%, the “Hypodermis % (proportion of skin layer)” value turned out to be 21% and the “Dermis T (thickness)” value is 249 ± 11.8^+ μm. For the same molecule, in the test with mouse dorsal skin (GDX female mice), the “Epidermis T (thickness)” value was 10.5 ± 0.3^+ μm and the “Hypodermis T (thickness)” value is 69 ± 4.5^++ μm. For the same molecule, the “Effect on dermal thickness (in words)” value in the test with mouse dorsal skin (GDX females) is recorded as “increase”. For the same molecule, the “Increase in dermal thickness” value in the test on mouse dorsal skin (setting [3]) is given as 19%. Moreover, the “Increase in epidermal thickness” value in the test with mouse dorsal skin (GDX females, versus GDX control, p<0.05) was determined as 13%. For the same molecule, in the test with mouse dorsal skin (GDX male mice), the “Dermis % (proportion of skin layer)” value amounted to 92.8%, the “Epidermis % (proportion of skin layer)” value stood at 1.7%, the “Hypodermis % (proportion of skin layer)” value amounted to 5.5% and the “Dermis T (thickness)” value is 486 ± 28.7 μm. Also, in the test with mouse dorsal skin (GDX male mice), the “Epidermis T (thickness)” value turned out to be 8.9 ± 0.3 μm and the “Hypodermis T (thickness)” value is recorded as 29 ± 6.2 μm.
As to `C[C@]12CCC(=O)C[C@@H]1CC[C@@H]1[C@@H]2CC[C@]2(C)[C@@H](O)CC[C@@H]12` [DHT, 5α-androstane-17β-ol-3-one], in the test with mouse dorsal skin, the “Effect on hypodermal thickness” value is listed as “markedly decreased”. For the same molecule, in the test on mouse dorsal skin (GDX female mice), the “Dermis % (proportion of skin layer)” value was found to be 79.5%, the “Epidermis % (proportion of skin layer)” value is 2.5%, the “Hypodermis % (proportion of skin layer)” value worked out at 18% and the “Dermis T (thickness)” value was 307 ± 13.3^++ μm. For the same molecule, in the test on mouse dorsal skin (GDX female mice), the “Epidermis T (thickness)” value worked out at 9.6 ± 0.2 μm and the “Hypodermis T (thickness)” value was 70 ± 4.6^++ μm. For the same molecule, the “Effect on dermal thickness (in words)” value in the test on mouse dorsal skin (GDX females) is listed as “increase”. Moreover, the “Increase in dermal thickness” value in the test on mouse dorsal skin (setting [3]) came to 47%. In the test with mouse dorsal skin (GDX male mice), the “Dermis % (proportion of skin layer)” value came out at 93%, the “Epidermis % (proportion of skin layer)” value amounted to 2.1%, the “Hypodermis % (proportion of skin layer)” value was determined as 4.9% and the “Dermis T (thickness)” value stood at 451 ± 24.1 μm. In the test on mouse dorsal skin (GDX male mice), the “Epidermis T (thickness)” value is listed as 10 ± 0.2 μm and the “Hypodermis T (thickness)” value is listed as 24 ± 1.9 μm.
